Structure (SMILES)	melting point [°C]
COc1cc2c(cc1OC)C1CCC(O)CC1N=C2c1ccc(OCC2CC2)c(OCC2CC2)c1 (racemic) [Compound 3, (±)-(3RS,4aRS,10bRS)-6-(3,4-Bis-cyclopropylmethoxyphenyl)-8,9-dimethoxy(1,2,3,4,4a,10b)-hexahydrophenanthridin-3-ol]	137 to 138
COc1cc2c(cc1OC)[C@H]1CC[C@H](O)C[C@H]1N=C2c1ccc(OCC2CC2)c(OCC2CC2)c1 (racemic) [Compound 4, (±)-(3SR,4aRS,10bRS)-6-(3,4-Bis-cyclopropylmethoxyphenyl)-8,9-dimethoxy-1,2,3,4,4a,10b-hexahydrophenanthridin-3-ol]	172.5 to 174
